Read-outs that look alike come from different tables or passages of the source.
Tests used:
[1] = tested on: TNF-α; test: In-vitro whole cell assay for TNF-α inhibition (LPS-stimulated PBMC, ELISA); format: cell-based; details: TNF-α by ELISA
Method: Freshly obtained venous blood was anticoagulated with heparin, diluted with an equal volume of phosphate buffered saline (“PBS”) and placed in a sterile tube or other container. Aliquots (30 mL) of this mixture were transferred to centrifuge tubes, which were underlaid with Ficoll-Hypaque (15 mL). The prepared tubes were centrifuged at 400×g, without braking, for 30 min at room temperature. Approximately ½ to ⅔ of the platelet layer above the mononuclear cell band was removed with a pipette. The majority of the mononuclear cell layer was carefully removed using a pipette and these PBMC's were diluted with PBS and spun at 600×g for 15 min. The resulting PBMC's were washed with another portion of PBS and spun at 400×g for 10 min at room temperature. The recovered pellets were diluted in low endotoxin RPMI/1% FCS culture medium, and gave a cell concentration of 0.5-2.0×10^6 PMBC/ mL. A small volume of the suspension was removed for counting on a hemocytometer and the remaining preparation was centrifuged at 200×g for 15 min at room temperature. The recovered pelleted PMBC's were resuspended in RPMI/1% FCS to a concentration of 1.67×10^6/mL.
To run the assay, the PBMC suspension (180 μL) was transferred to duplicate wells of a 96-well flat-bottom microtiter plate and incubated for 1 h at 37° C. A solution of test compound (10 μL: prepared at 20× the desired final concentration) was added to each well and the plate was incubated for 1 h at 37° C. A solution (10 μL) of LPS in RPMI/1% FCS (200 ng/mL) was added and the wells were incubated overnight at 37° C. The supernate (100 μL) was removed from each well and diluted with RPMI/1% FCS (400 μL). The samples were analyzed for TNF-α using a commercial ELISA kit (Genzyme).

[2] = tested on: TNF-α; test: In vivo rodent assay for inhibition of LPS-induced TNF-α production; design: species or system Mice (BALB/cJ females); details: Mus musculus, po, 10 mg/kg oral
Method: Mice (BALB/cJ females, Jackson Laboratories) or rats (Lewis males, Charles River) were fasted for 30 min. The animals were dosed orally on a mg/kg basis at a range of times prior to being injected intraperitoneally with LPS at 1 mg/kg and returned to their cages for 1 h. Animals were anesthetized by CO2, exsanguinated by cardiac puncture and whole blood collected (0.1-0.7 mL). The blood was allowed to clot and serum was transferred to a centrifuge tube. This sample was centrifuged, and serum was collected, aliquoted and frozen at −80° C. Samples were tested by commercial ELISA's for TNF-α (Endogen for mouse TNF-α and Biosource for rat TNF-α).

[3] = 0.5 h, 0.5 h, read-out: Mouse 10 mg/kg % inhib 0.5 h
[4] = 2 h, 2 h, read-out: Mouse 10 mg/kg % inhib 2 h

Fc1ccc(-c2cn3c(c2-c2ccncc2)CNCC3)cc1 [Cpd 30, 7-(4-Fluorophenyl)-1,2,3,4-tetrahydro-8-(4-pyridinyl)-pyrrolo[1,2-a]pyrazine]
IC50 [1]: 208 nM | inhibition in vivo at 10 mg/kg [2, 3]: 71%

CCN1C(=O)c2c(-c3ccncc3)c(-c3ccc(F)cc3)cn2C1=O [Cpd 31, 2-Ethyl-6-(4-fluorophenyl)-7-(4-pyridinyl)-1H-pyrrolo[1,2-c]imidazole-1,3(2H)-dione]
IC50 [1]: 401 nM | inhibition in vivo at 10 mg/kg [2, 3]: 72%

CCNC(=O)c1[nH]cc(-c2ccc(F)cc2)c1-c1ccncc1 [Cpd 32, N-Ethyl-4-(4-fluorophenyl)-3-(4-pyridinyl)-1H-pyrrole-2-carboxamide]
IC50 [1]: 209 nM | inhibition in vivo at 10 mg/kg [2, 3]: -24%

Cn1cc(-c2ccncc2)c(-c2ccc(F)cc2)c1C(=O)NCC(=O)c1ccccc1 [Cpd 34, 3-(4-Fluorophenyl)-1-methyl-N-(2-oxo-2-phenylethyl)-4-(4-pyridinyl)-1H-pyrrole-2-carboxamide]
IC50 [1]: 157 nM | inhibition in vivo at 10 mg/kg [2, 3]: 81% | inhibition in vivo at 10 mg/kg [2, 4]: 37%

Cn1cc(-c2ccncc2)c(-c2ccc(F)cc2)c1-c1nnco1 [Cpd 35, 4-[4-(4-Fluorophenyl)-1-methyl-5-(1,3,4-oxadiazol-2-yl)-1H-pyrrol-3-yl]pyridine]
IC50 [1]: 18 nM | inhibition in vivo at 10 mg/kg [2, 3]: 60% | inhibition in vivo at 10 mg/kg [2, 4]: -1%

Cn1cc(-c2ccncc2)c(-c2ccc(F)cc2)c1-c1ncc(-c2ccccc2)o1 [Cpd 36, 4-[4-(4-Fluorophenyl)-1-methyl-5-(5-phenyl-2-oxazolyl)-1H-pyrrol-3-yl]pyridine]
IC50 [1]: 1030 nM | inhibition in vivo at 10 mg/kg [2, 3]: 81% | inhibition in vivo at 10 mg/kg [2, 4]: 35%

Cn1cc(-c2ccncc2)c(-c2ccc(F)cc2)c1-c1cnco1 [Cpd 41, 4-[4-(4-Fluorophenyl)-1-methyl-5-(5-oxazolyl)-1H-pyrrol-3-yl]pyridine]
IC50 [1]: 59 nM | inhibition in vivo at 10 mg/kg [2, 3]: 53%

COC(=O)c1c(-c2ccncc2)c(-c2ccc(F)cc2)c(Br)n1C [Cpd 43, 5-Bromo-4-(4-fluorophenyl)-1-methyl-3-(4-pyridinyl)-1H-pyrrole-2-carboxylic acid methyl ester]
IC50 [1]: 180 nM | inhibition in vivo at 10 mg/kg [2, 3]: -6%

COC(=O)c1c(-c2ccncc2)c(-c2ccc(F)cc2)c(C#CCN2CCOCC2)n1C [Cpd 44, 4-(4-Fluorophenyl)-1-methyl-5-[3-(4-morpholinyl)-1-propynyl]-3-(4-pyridinyl)-1H-pyrrole-2-carboxylic acid methyl ester]
IC50 [1]: 788 nM | inhibition in vivo at 10 mg/kg [2, 4]: 47%

COC(=O)c1c(-c2ccc(F)cc2)c(-c2ccncc2)c2n1CCC2C (stereo not shown) [Cpd 47, 6-(4-Fluorophenyl)-2,3-dihydro-1-methyl-7-(4-pyridinyl)-1H-pyrrolizine-5-carboxylic acid methyl ester]
IC50 [1]: 208 nM | inhibition in vivo at 10 mg/kg [2, 3]: 67% | inhibition in vivo at 10 mg/kg [2, 4]: 52%

CCCc1c(-c2ccnc(SC)n2)c(-c2ccc(F)cc2)cn1CCCN(C)C [Cpd 48]
IC50 [1]: 148 nM | inhibition in vivo at 10 mg/kg [2, 3]: -37%

CCCC1=C(c2ccnc(N[C@@H](C)c3ccccc3)n2)C(c2ccc(F)cc2)=CC1CCN1CCOCC1 (stereo partly shown) [Cpd 55]
IC50 [1]: 4 nM | inhibition in vivo at 10 mg/kg [2, 3]: -35%

CCOC(=O)c1[nH]cc(-c2ccncc2)c1-c1cccc(C(F)(F)F)c1 [Cpd 57]
IC50 [1]: 96 nM | inhibition in vivo at 10 mg/kg [2, 3]: -8%

Cn1c(N2CCCC2)c(-c2ccncc2)c(-c2ccc(F)cc2)c1C(C)(C)O [Cpd 111]
IC50 [1]: 192 nM | inhibition in vivo at 10 mg/kg [2, 3]: 37.7%

Cn1cc(-c2ccc(F)cc2)c(-c2ccncc2)c1CO [Cpd 112]
IC50 [1]: 169 nM | inhibition in vivo at 10 mg/kg [2, 3]: 65%

COC(=O)c1c(-c2ccc(F)cc2)c(-c2ccncc2)c(N2CCC(N)C2)n1C (stereo not shown) [Cpd 113]
IC50 [1]: 237 nM | inhibition in vivo at 10 mg/kg [2, 3]: 25%

COC(=O)c1c(-c2ccc(F)cc2)c(-c2ccncc2)c(NCCN(C)C)n1C [Cpd 114]
IC50 [1]: 98 nM | inhibition in vivo at 10 mg/kg [2, 3]: -43%

COC(=O)c1c(-c2ccc(F)cc2)c(-c2ccncc2)c(NCCN2CCCCC2)n1C [Cpd 115]
IC50 [1]: 92 nM | inhibition in vivo at 10 mg/kg [2, 3]: -36%
